Residues, ends and D or L forms follow the SMILES beside them.
Columns and labels:
[1] = system: LPS-induced lethality in mice; experiment: Potency of LAP in counteracting lethality induced by a DL100 dose of LPS (Example 3); format: in vivo, CD1 mice; settings: for Lethality 24 h / Lethality 24 h (dead/total) / Lethality 48 h / Lethality 48 h (dead/total) / Lethality 72 h / Lethality 72 h (dead/total): LPS 1 mg/mouse
Excerpt: Synthetic peptide or Lajor Active Peptide (LAP) was synthesized chemically to produce the amino acid sequence of the previously-identified bioactive peptide contained in Fractions 2, 3 and 4 of the low molecular weight components of PLB. […] Mice treated with Fraction 4 prepared from PLB were used as positive controls.
Six weeks old female CD1 mice (Charles River, Calco, Italy) were used. The mice were allowed to adapt one week to their environment before commencing the study. They were kept under standard laboratory condition with ad libitum food and water.
The mice were injected i.p. with 1 mg of lipopolysaccharide (LPS) (Sigma Chimica, Milan, Italy). Mortality was recorded every 24 hours up to 72 hours after challenge with LPS.

LPS-induced lethality = experiment: Time and dose effects of LAP on LPS-induced lethality (Example 14); format: in vivo, CD1 mice; settings: 1 mg LPS i.p.
Procedure: To induce lethal endotoxemia, the mice were injected i.p. with 1 mg lipopolysaccharide (LPS, Cod. L6011, lot 112K4063, Sigma Chimica, Milan, Italy). LAP was provided by Lajor BioTech (Pittsburgh, Pa. USA), dissolved volume/volume in trifluoroacetic acid 0.1% in water and Na2HPO4 and injected ip in a final volume of 100 mcl.
Statistical analysis was performed by chi-square for lethality and one way ANOVA for cytokine measurements. P values lower than 0.05 were taken as significant.

TNF-α = experiment: LPS-induced blood levels of TNF-α, ELISA (Example 14); format: in vivo, mouse; settings: 10 mcg LAP
Procedure: (§1) Plasma samples were obtained by blood obtained from individual mice at sacrifice. TNF-α, IFN-γ and IL-10 were measured by mouse specific solid-phase ELISA according to the manufacturer's (Celbio Euroclone, Milan, Italy) instructions. Intra and inter-assays coefficient of variations were within 10%. The limit of sensitivity of the assays were 7 pg/ml. For statistical analysis, samples with undetectable amounts of cytokine were assigned 7 pg as theoretical value.
(§2) Injection of LPS is associated with a marked increase in the blood levels of both type 1 (IFN-γ, TNF-α, IL-1) and type 2 (IL-10) cytokines that occurs with different kinetic after the inoculation of the toxin. To evaluate the effects of LAP treatment on LPS-induced cytokine increase in the circulation of the mice, experiments were carried out where mice treated with 10 mcg LAP or its vehicle, were sacrificed just before injection of a sublethal dose of LPS one hour after treatment with either LAP or PBS (T0) and then 2 (T2) and 8 (T8) hours after LPS.

IFN-γ = experiment: LPS-induced blood levels of IFN-γ, ELISA (Example 14); format: in vivo, mouse; settings: 10 mcg LAP; 2 and 8 hours after LPS
Procedure: as §1, §2

IL-10 = experiment: Blood levels of IL-10, ELISA (Example 14); format: in vivo, mouse
Procedure: as §1, §2

Con A-induced hepatitis = Con A-induced hepatitis in mice, plasma ALAT, LAP prophylaxis (Example 15); format: in vivo, CD1 male mice
Procedure: Eight weeks old outbred CD1 male mice (Charles River, Calco, Italy) were kept under standard laboratory conditions (non-specific pathogen free) at 24° C. with free access to food and water. The food was withdrawn 16 hours prior to the experiments.
Con A (Sigma Chemical, St. Louis, Mo.), dissolved in sterile phosphate-buffered saline (PBS) was injected into the tail veins. The groups were treated with either LAP (dissolved volume/volume in trifluoroacetic acid 0.1% in water and Na2HPO4 and then further diluted in water for injection), or its vehicle, 1 hour prior to and one hour after Con A. An additional group of control mice was injected with Con A and received no treatment. Finally, other two groups of mice were also included for comparison that were either injected i.v. with PBS or received no treatment (Table 8). LAP, its vehicle, PBS and Con A were all injected in a final volume of 100 microliter (mcl). The animals were sacrificed for blood collection 8 hours after Con A injection, when biochemical and signs (transaminases increase) of hepatic injury are pronounced (15-1 to 15-9). Mice dead before sacrifice (Table 8) were not included.
Plasma alanine aminotransferase (ALAT) activity was determined by a standard photometric assay using a bichromatic analyzer. Results are expressed in U/L
Results are shown as mean values ±SD. Statistical analysis was performed by one way ANOVA. The effect of LAP was considered to be statistically significant when the difference of ALAT blood levels versus controls yields a p value at least lower than 0.05.

CD4+CD25− T cells = experiment: T cell proliferation assay, thymidine incorporation (Example 21); format: cell-based, Balb/c mouse
Procedure: T cell proliferation assays were set up as follows. Antigen presenting cells (APCs) obtained as single cell suspension from Balb/c mouse spleens were pulsed with fecal extract (from Balb/C mice) overnight in 24 well-plate (1×10^6 cells/ml with 400 μg/ml of extract). Responding cells were obtained from Balb/c mouse spleens as CD4^+CD25^− T cells. CD4+ T cells were selected by DYNABEADS, and CD4^+CD25^− T cells were then selected using labelled anti-CD25 antibody (e.g. PE-labelled anti-CD25). Responding T cells were co-cultured with APC in 96 round bottom well-plate (3.3×10^4 responding cell/1×10^5 APC in 200 μl) in the presence or absence of LAP for 5 days. Immune cell proliferation was then determined by standard thymidine incorporation assays.

[2] = system: auto-immune diabetes in the NOD mouse; settings: in vivo
Excerpt: (§3) Female NOD mice (Charles River, Calco, Italy) were maintained under standard laboratory conditions (non-specific pathogen free) with free access to food and water. During the study period of diabetes prevention the mice were screened for diabetes development twice a week by means of glycosuria followed, when positive, by measurement of glycaemia. Mice are diagnosed as diabetic when fasting glycaemia is above 12 mmol/l for 2 consecutive days.
(§4) Euglycaemic female NOD mice were randomly allocated into 4 different groups receiving either LAP or vehicle starting at the 4th or at the 12th week of age. Because insulitis is virtually absent in 4-week-old NOD mice and is actively ongoing at 12 weeks, this approach allowed us to investigate the effects of LAP-treatment in both the early and late diabetogenic stages of the NOD mouse. The readout of the early prohylactic treatment was to evaluate the effect of LAP on development of insulitis, while the readout of the late prophylactic treatment was to evaluate the effect of LAP on the incidence of clinically overt diabetes.
(§5) For the early prophylactic treatment 4-week-old NOD mice were treated with either 10 mcg LAP (dissolved and diluted [100 mcl final volume] as described in Example 14 and 15) or 100 mcl vehicle, daily, six times weekly until the age of 14 weeks. At this point, the euglycaemic mice were sacrificed and their pancreatic specimens collected for histological examination of insulitis.
(§6) For the late prophylactic treatment, 12-week-old NOD mice were randomly divided into two experimental groups, one treated with LAP and the other with vehicle, under the same experimental regime described for the early prophylactic treatment.
(§7) Histological examination of the pancreatic islets was performed in a blind fashion by two pathologists unaware of the status and/or the treatment of the animals, as described previously (See 16-3 to 16-5). The degree of mononuclear cell infiltration is graded as follows: 0, no infiltrate; 1, peri-ductular infiltrate; 2, peri-islet infiltrate; 3, intra-islet infiltrate; 4, intra-islet infiltrate associated with β-cell destruction. At least 12 islets are counted for each mouse. The mean score for each pancreas is calculated by dividing the total score by the numbers of islets.

[3] = system: auto-immune diabetes in the NOD mouse; experiment: LAP in development of insulitis and auto-immune diabetes in NOD mouse (Example 16)
Excerpt: as §3, §4, §5, §6, §7

Q: How did the “Lethality 24 h” value ([1]; 2.5 mcg at −24, −1 h) turn out when CC[C@H](C)[C@H](NC(=O)[C@H](CCC(=O)O)NC(=O)[C@@H](NC(=O)[C@H](C)NC(=O)[C@H](CO)NC(=O)[C@@H](NC(=O)[C@@H](N)CC(N)=O)C(C)C)C(C)C)C(=O)N[C@@H](C)C(=O)O [LAP, NH2-NVSAVEIA-COOH] (H-NVSAVEIA-OH) was run?
A: The value was 10%.

Q: And the “Lethality 24 h (dead/total)” value ([1]; 2.5 mcg at −24, −1 h)?
A: The value was “(2/20)”.

Q: What about the “Lethality 48 h” value ([1]; 2.5 mcg at −24, −1 h) of the same compound?
A: Its value is 35%.

Q: And the “Lethality 48 h (dead/total)” value ([1]; 2.5 mcg at −24, −1 h)?
A: Its value is “(7/20)”.

Q: What about the “Lethality 72 h” value ([1]; 2.5 mcg at −24, −1 h) of the same compound?
A: Its value is 80%.

Q: What about the “Lethality 72 h (dead/total)” value ([1]; 2.5 mcg at −24, −1 h) of the same compound?
A: Its value is “(16/20)”.

Q: And the “Lethality 24 h” value ([1]; 10 mcg at −24, −1 h)?
A: Its value is 10%.

Q: And the “Lethality 24 h (dead/total)” value ([1]; 10 mcg at −24, −1 h)?
A: The value was “(2/20)”.

Q: What about the “Lethality 48 h” value ([1]; 10 mcg at −24, −1 h) of the same compound?
A: Its value is 35%.

Q: And the “Lethality 48 h (dead/total)” value ([1]; 10 mcg at −24, −1 h)?
A: Its value is “(7/20)”.

Q: And the “Lethality 72 h” value ([1]; 10 mcg at −24, −1 h)?
A: Its value is 50%.

Q: What about the “Lethality 72 h (dead/total)” value ([1]; 10 mcg at −24, −1 h) of the same compound?
A: Its value is “(10/20) c”.

Q: And the “kinetic and cumulative rate of lethality (in words)” value ([1]; different doses of LAP tested)?
A: The value was “unaffected”.

Q: And the “cumulative rate of lethality (in words)” value ([1]; prophylactic treatment with 10 ucg)?
A: The value was “markedly reduced”.

Q: What about the “Lethality 72 h” value (LPS-induced lethality; 1 mcg at −24, −1 h) of the same compound?
A: The value was “(79%)”.

Q: What about the “Lethality 72 h (dead/total)” value (LPS-induced lethality; 1 mcg at −24, −1 h) of the same compound?
A: Its value is 11/14.

Q: What about the “Lethality 72 h” value (LPS-induced lethality; 10 mcg at +1 h) of the same compound?
A: The value was “(71%)”.

Q: And the “Lethality 72 h (dead/total)” value (LPS-induced lethality; 10 mcg at +1 h)?
A: Its value is 10/14.

Q: What about the “Lethality 72 h” value (LPS-induced lethality; 10 mcg at −1, +1 h) of the same compound?
A: The value was “(14%)”.

Q: What about the “Lethality 72 h (dead/total)” value (LPS-induced lethality; 10 mcg at −1, +1 h) of the same compound?
A: Its value is 2/14.

Q: What about the “Lethality 72 h” value (LPS-induced lethality; 10 mcg at −24, −1 h) of the same compound?
A: The value was “(14%)”.

Q: And the “Lethality 72 h (dead/total)” value (LPS-induced lethality; 10 mcg at −24, −1 h)?
A: Its value is 2/14.

Q: And the “Lethality 72 h” value (LPS-induced lethality; 20 mcg at −1, +1 h)?
A: The value was “(100%)”.

Q: And the “Lethality 72 h (dead/total)” value (LPS-induced lethality; 20 mcg at −1, +1 h)?
A: The value was 14/14.

Q: What about the “reduction of TNF-α blood levels vs. controls” value (TNF-α; 2 hours after sublethal LPS (0.5 mg/mouse), p=0.01) of the same compound?
A: The value was 37.3%.

Q: And the “reduction of TNF-α blood levels vs. controls” value (TNF-α; 8 hours after sublethal LPS (0.5 mg/mouse), p=0.005)?
A: The value was 76.5%.

Q: What about the “LPS-induced blood levels of IFN-γ (in words)” value (IFN-γ) of the same compound?
A: The value was “did not modify”.

Q: What about the “LPS-induced blood levels of IL-10 (in words)” value (IL-10; 10 mcg LAP, 2 and 8 hours after LPS) of the same compound?
A: The value was “did not modify”.

Q: What about the “mice with detectable levels of IL-10 in the blood” value (IL-10; T0, 1 hour after 10 mcg LAP, before LPS, 0 out of 10 controls) of the same compound?
A: Its value is 3 out of 10.

Q: What about the “reduction of ALAT vs controls” value (Con A-induced hepatitis; 8 hours after Con A) of the same compound?
A: The value was 84.7%.

Q: What about the ALAT values (Con A-induced hepatitis; LAP 1 hour prior to and one hour after Con A, 8 hours after Con A, mean ± SD) of the same compound?
A: Its ALAT values is 686 ± 197b U/L.

Q: What about the “Lethality (dead before sacrifice/total)” value (Con A-induced hepatitis; LAP 1 hour prior to and one hour after Con A, within 8 hours) of the same compound?
A: Its value is 1/15.

Q: And the “CD4+CD25− T cell proliferation in response to antigen-pulsed APCs in the presence of the peptide” value (CD4+CD25− T cells; 5 days co-culture)?
A: Its value is “inhibited”.

Q: What about the “T cell proliferation in response to APCs pre-treated with the peptide” value (CD4+CD25− T cells; APCs pre-treated for 24 hours) of the same compound?
A: Its value is “not affected”.

Q: What about the “tolerability of long-term administration (clinical appearance and behaviours)” value [2] of the same compound?
A: The value was “apparently well tolerated”.

Q: And the “NOD mice that developed diabetes during the treatment period” value ([3]; early prophylaxis, 4 to 14 weeks of age, 2 of 8 vehicle controls)?
A: The value was “None and none”.

Q: And the insulitis score ([3]; early prophylaxis, 10 mcg daily six times weekly from 4 to 14 weeks of age, vehicle 2±0.9)?
A: The insulitis score was 0.9±0.6.

Q: What about the “azotemia and transaminases values vs controls” value ([3]; mice sacrificed at week 14) of the same compound?
A: Its value is “no differences”.

— patent US20070123467A1, “Amniotic-derived peptide and uses thereof” (priority 2003, published 2007)
